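Each compound was tested at five concentrations against cells in 96-well plates for 48 hours. GI50 = concentration required for 50% inhibition of growth. Definition used: TGI = concentration required for complete inhibition of growth.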
What was measured:
Test in all cases: DTP human tumour cell line panel, 48 h
[1] = tested on: SF-539 CNS
[2] = tested on: SF-295 CNS
[3] = tested on: HS 578T breast
[4] = tested on: MCF7 breast
[5] = tested on: U251 CNS
[6] = tested on: CCRF-CEM leukemia
[7] = tested on: A498 renal
[8] = tested on: LOX IMVI melanoma
[9] = tested on: NCI-H23 lung
[10] = tested on: SF-268 CNS
[11] = tested on: DU-145 prostate
[12] = tested on: NCI/ADR-RES ovarian
[13] = tested on: MALME-3M melanoma
[14] = tested on: UACC-257 melanoma
[15] = tested on: HL-60(TB) leukemia
[16] = tested on: BT-549 breast
[17] = tested on: HCT-15 colon
[18] = tested on: ACHN renal
[19] = tested on: RXF 393 renal
[20] = tested on: RPMI-8226 leukemia
[21] = tested on: HCT-116 colon
[22] = tested on: MOLT-4 leukemia
[23] = tested on: OVCAR-5 ovarian
[24] = tested on: T-47D breast
[25] = tested on: SK-MEL-28 melanoma
[26] = tested on: TK-10 renal
[27] = tested on: UACC-62 melanoma
[28] = tested on: EKVX NSCLC
[29] = tested on: NCI-H460 lung
[30] = tested on: OVCAR-8 ovarian
[31] = tested on: SK-MEL-2 melanoma
[32] = tested on: NCI-H522 lung
[33] = tested on: MDA-MB-435
[34] = tested on: CAKI-1 renal
[35] = tested on: 786-0 renal
[36] = tested on: OVCAR-4 ovarian
[37] = tested on: UO-31 renal
[38] = tested on: SNB-75 CNS
[39] = tested on: IGROV1 ovarian
[40] = tested on: A549 NSCLC
[41] = tested on: PC-3 prostate
[42] = tested on: M14 melanoma
[43] = tested on: K-562 leukemia
[44] = tested on: OVCAR-3 ovarian
[45] = tested on: SNB-19 CNS
[46] = tested on: COLO 205 colon
[47] = tested on: KM12 colon
[48] = tested on: HCC-2998 colon
[49] = tested on: SN12C renal
[50] = tested on: HT29 colon
[51] = tested on: HOP-62 NSCLC
[52] = tested on: SK-MEL-5 melanoma
[53] = tested on: MDA-MB-231 breast
[54] = tested on: SK-OV-3 ovarian
[55] = tested on: SW-620 colon
[56] = tested on: HOP-92 NSCLC

What does the source list for O=C1C(Cl)=C(Nc2ccc3cn[nH]c3c2)C(=O)c2ccccc21?
GI50 [1]: 1.81 µM; TGI [1]: 3.2 µM; GI50 [2]: 1.67 µM; TGI [2]: 4.14 µM; GI50 [3]: 0.5 µM; TGI [3]: 3.88 µM; GI50 [4]: 1.09 µM; TGI [4]: 2.58 µM; GI50 [5]: 1.31 µM; TGI [5]: 2.58 µM; GI50 [6]: 1.52 µM; TGI [6]: 3.91 µM; GI50 [7]: 3.05 µM; TGI [7]: 8.9 µM; GI50 [8]: 0.562 µM; TGI [8]: 1.92 µM; GI50 [9]: 0.413 µM; TGI [9]: 1.81 µM; GI50 [10]: 1.63 µM; TGI [10]: 3 µM; GI50 [11]: 1.17 µM; TGI [11]: 2.39 µM; GI50 [12]: 1.62 µM; TGI [12]: 3.42 µM; GI50 [13]: 0.666 µM; TGI [13]: 1.95 µM; GI50 [14]: 1.66 µM; TGI [14]: 3.06 µM; GI50 [15]: 1.7 µM; TGI [15]: 4.45 µM; GI50 [16]: 1.5 µM; TGI [16]: 2.82 µM; GI50 [17]: 1.01 µM; TGI [17]: 2.17 µM; GI50 [18]: 1.33 µM; TGI [18]: 2.61 µM; GI50 [19]: 1.54 µM; TGI [19]: 2.92 µM; GI50 [20]: 0.31 µM; TGI [20]: 2.43 µM; GI50 [21]: 1.43 µM; TGI [21]: 2.78 µM; GI50 [22]: 1.47 µM; TGI [22]: 4.15 µM; GI50 [23]: 1.8 µM; TGI [23]: 3.21 µM; GI50 [24]: 1.24 µM; TGI [24]: 3.27 µM; GI50 [25]: 1.65 µM; TGI [25]: 3.01 µM; GI50 [26]: 3.79 µM; TGI [26]: 8.06 µM; GI50 [27]: 1.5 µM; TGI [27]: 2.93 µM; GI50 [28]: 1.5 µM; TGI [28]: 4.6 µM; GI50 [29]: 1.7 µM; TGI [29]: 4.14 µM; GI50 [30]: 1.52 µM; TGI [30]: 3.01 µM; GI50 [31]: 1.71 µM; TGI [31]: 3.54 µM; GI50 [32]: 1.55 µM; TGI [32]: 2.94 µM; GI50 [33]: 1.51 µM; TGI [33]: 2.83 µM; GI50 [34]: 1.47 µM; TGI [34]: 2.78 µM; GI50 [35]: 1.81 µM; TGI [35]: 3.21 µM; GI50 [36]: 1.31 µM; TGI [36]: 2.58 µM; GI50 [37]: 1.25 µM; TGI [37]: 2.51 µM; GI50 [38]: 1.67 µM; TGI [38]: 3.03 µM; GI50 [39]: 0.198 µM; TGI [39]: 2.02 µM; GI50 [40]: 2.38 µM; TGI [40]: 5.86 µM; GI50 [41]: 1.17 µM; TGI [41]: 2.44 µM; GI50 [42]: 1.59 µM; TGI [42]: 3.01 µM; GI50 [43]: 0.526 µM; TGI [43]: 2.06 µM; GI50 [44]: 1.08 µM; TGI [44]: 2.27 µM; GI50 [45]: 1.66 µM; TGI [45]: 3.33 µM; GI50 [46]: 1.42 µM; TGI [46]: 2.89 µM; GI50 [47]: 3.23 µM; TGI [47]: 14.7 µM; GI50 [48]: 2.02 µM; TGI [48]: 3.99 µM; GI50 [49]: 1.49 µM; TGI [49]: 3.11 µM; GI50 [50]: 1.98 µM; TGI [50]: 3.72 µM; GI50 [51]: 2.15 µM; TGI [51]: 5.29 µM; GI50 [52]: 0.308 µM; TGI [52]: 1.26 µM; GI50 [53]: 1.41 µM; TGI [53]: 2.73 µM; GI50 [54]: 12 µM; TGI [54]: 24.3 µM; GI50 [55]: 1.36 µM; TGI [55]: 2.95 µM; GI50 [56]: 1.57 µM; TGI [56]: 3 µM

Source: PubChem BioAssay (NCI)
